For orientation: IC50 means the concentration that inhibits the measured activity by half.

The source of these data is patent publication US20100168176A1, “NOVEL COMPOUNDS, PHARMACEUTICAL COMPOSITIONS CONTAINING SAME, AND METHODS OF USE FOR SAME” (FASGEN LLC, priority 2006, published 2010).

Converted amounts (≈) assume the structure as drawn.

Experiment [1] relates to MCF-7 human breast cancer cells. In words: XTT cytotoxicity assay, MCF-7 (M). The format is cell-based. Particulars: Homo sapiens, MCF7; (M) or no code; MCF-7, 72 hours. Here is the method:
The XTT assay is a non-radioactive alternative for the [^51Cr] release cytotoxicity assay. XTT is a tetrazolium salt that is reduced to a formazan dye only by metabolically active, viable cells. The reduction of XTT is measured spectrophotometrically as OD490-OD650.
To measure the cytotoxicity of specific compounds against cancer cells, 9×10^3 MCF-7 human breast cancer cells, obtained from the American Type Culture Collection are plated per well in 96 well plates in DMEM medium with 10% fetal bovine serum, insulin, penicillin, and streptomycin. Following overnight culture at 37° C. and 5% CO2, the compounds to be tested, dissolved in DMSO, are added to the wells in 1 μl volume at the following concentrations: 80, 40, 20, 10, 5, 2.5, 1.25, and 0.625 μg/ml in triplicate. Additional concentrations are tested if required. 1 μl of DMSO is added to triplicate wells are the vehicle control. C75 is run at 40, 20, 10, […], 10, and 5 in triplicate as positive controls.
After 72 hours of incubation, cells are incubated for 4 hours with the XTT reagent as per manufacturer's instructions (Cell Proliferation Kit II (XTT) Roche). Plates are read at OD490 and OD650 on a Molecular Devices SpectraMax Plus Spectrophotometer. Three wells containing the XTT reagent without cells serve as the plate blank. XTT data are reported as OD490-OD650. Averages and standard error of the mean are computed using SOFTmax Pro software ([…]).
The IC50 for the compounds is defined as the concentration of drug leading to a 50% reduction in OD400-OD650 compared to controls. The OD400-OD650 are computed by the SOFTmax PRO software (Molecular Devices) for each compound concentration. IC50 is calculated by linear regression, plotting the FAS activity as percent of control versus drug concentrations. Linear regression, best-fit line, r^2, and 95% confidence intervals are determined using Prism Version 3.0 (Graph Pad Software).

Experiment [2] has the same test system. The experiment in a line: Crystal violet cell growth assay, MCF-7. The experiment is classed as cell-based. The conditions noted are these: MCF7, no cell code printed, MCF-7 per method, 72 hours, read-out: Cr. Violet (IC50). How it is done:
Crystal Violet Cell Growth Assay
The crystal violet assay measure cell growth but not cytotoxicity. This assay employs crystal violet staining of fixed cells in 96-well plates with subsequent solubilization and measurement of OD490 on a spectrophotometer. The OD490 corresponds to cell growth per unit time measured. Cells are treated with the compounds of interest or vehicle controls and IC50 for each compound is computed.
To measure the cytotoxicity of specific compounds against cancer cells, 5×10^4 MCF-7 human breast cancer cells, obtained from the American Type Culture Collection are plated per well in 24 well plates in DMEM medium with 10% fetal bovine serum, penicillin, and streptomycin. Following overnight culture at 37° C. and 5% CO2, the compounds to be tested, dissolved in DMSO, are added to the wells in 1 μl volume at the following concentrations: 50, 40, 30, 20, and 10 μg/ml in triplicate. […]
After 72 hours of incubation, cells are stained with 0.5 ml of Crystal Violet stain (0.5% in 25% methanol) in each well. […] Following transfer of 100 μl from each well to a 96-well plate, plates are read at OD490 on a Molecular Devices SpectraMax Plus Spectrophotometer Average OD490 values are computed using SOFTmax Pro Software (Molecular Devices) and IC50 values are determined by linear regression analysis using Prism version 3.02 (Graph Pad Software, San Diego).

The nature of experiment [3]: Weight loss screen in Balb/C mice. The format is in vivo. Particulars: 60 mg/kg intraperitoneally, day 1. How it is done: Weight Loss Screen for Novel FAS Inhibitors
Balb/C mice (Jackson Labs) are utilized for the initial weight loss screening. Animals are housed in temperature and 12 hour day/night cycle rooms and fed mouse chow and water ad lib. Three mice are utilized for each compound tested with vehicle controls in triplicate per experiment. For the experiments, mice are housed separately for each compound tested three mice to a cage. Compounds are diluted in DMSO at 10 mg/ml and mice are injected intraperitoneally with 60 mg/kg in approximately 100 μl of DMSO or with vehicle alone. Mice are observed and weighed daily; average weights and standard errors are computed with Excel (Microsoft). The experiment continues until treated animals reach their pretreatment weights.

The test system of a further experiment is OV. In words: XTT cytotoxicity assay, OV. The experiment is classed as cell-based.

`CCCCCCCCC1(C)SC(=O)C=C1OCC(=O)NNc1ccccc1Cl` (stereo not shown) [Compound 19, (5-Methyl-5-octyl-2-oxo-thiophen-4-yloxy)-acetic-acid-N′-(2-chlorophenyl)-hydrazide]: the IC50 in experiment [1] stood at 6.1 ± 0.3 µg/mL (≈ 14.4 µM); in experiment [2], 7.6 µg/mL (≈ 17.9 µM); in the experiment on OV it was 9.4 µg/mL (≈ 22.1 µM). Also, the “Weight Loss” value in experiment [3] is recorded as 60 mg/kg: +3.0% (day 1).

Take `CCCCCCCCC1(C)SC(=O)C=C1OCC(=O)NNC(=O)c1ccncc1` (stereo not shown) [Compound 20]: the IC50 was found to be 22.5 ± 2 µg/mL (≈ 53.6 µM) in experiment [1], 18.2 µg/mL (≈ 43.4 µM) in experiment [2] and 33 ± 9.1 µg/mL (≈ 78.7 µM) with OV.
